# Measurements as given in patent US6753338B2, “Methods for treating hypertension, angina, and congestive heart failure using of optically pure (-) amlodipine” (Sepracor Inc., priority 1991, dated 2004).
# System: K+-depolarized isolated guinea pig ileal segment
# Test: Calcium antagonism, guinea pig ileum (in vitro)
# Settings: Cavia porcellus; reference agents; K+-depolarized ileal segment in Ca-free physiological salt solution, 37° C., added calcium 20 μg/ml CaCl; read-out: ED100 (inhibition of contractile response to added calcium)
# Source text: Calcium Antagonism, Guinea Pig Ileum (in Vitro):
row,SMILES,IC100 [µg/mL]
1,CN1CCC(=C2c3ccccc3C=Cc3ccccc32)CC1 [cyproheptadine],0.025
2,COc1ccc([C@@H]2Sc3ccccc3N(CCN(C)C)C(=O)[C@@H]2OC(C)=O)cc1 [diltiazem],0.01
3,CN(C)CCOC(c1ccccc1)c1ccccc1 [diphenhydramine],1
4,Fc1ccc(C(c2ccc(F)cc2)N2CCN(C/C=C/c3ccccc3)CC2)cc1 [flunarizine],0.1
5,COc1ccc(CN(CCN(C)C)c2ccccn2)cc1 [mepyramine],> 5
6,COc1ccc(Cc2nccc3cc(OC)c(OC)cc23)cc1OC [papaverine],4
7,CC(CN1c2ccccc2Sc2ccccc21)N(C)C (stereo not shown) [promethazine],0.25
8,CC(C)NCC(O)COc1cccc2ccccc12 (stereo not shown) [propranolol],4

# Same assay, conditions: reference agents; K+-depolarized ileal segment in Ca-free physiological salt solution, 37° C., added calcium 20 μg/ml CaCl
row,SMILES,ED100 (inhibition of contractile response to added calcium) [µg/mL]
1,C(=C\c1ccccc1)/CN1CCN(C(c2ccccc2)c2ccccc2)CC1 [cinnazrizine],1
2,CC(C)[N+]1(C)[C@@H]2CC[C@H]1CC(OC(=O)C(CO)c1ccccc1)C2.[Br-] (stereo partly shown) [ipratropium bromide],> 2
3,CC(COc1ccccc1)NC(C)C(O)c1ccc(O)cc1 (stereo not shown) [isoxuprine],4

# System: potassium-depolarized rat aorta
# Test: not given
# Settings: in vitro; cited from earlier work
row,SMILES,activity relative to the racemic mixture in antagonizing calcium-induced constriction
1,"CCOC(=O)C1=C(COCCN)NC(C)=C(C(=O)OC)C1c1ccccc1Cl (single isomer, unassigned; isomer 3) [(−) isomer, 3-ethyl 5-methyl (−)-2-[2-aminoethoxy)methyl]-4-(2-chlorophenyl)-1,4-dihydro-6-methyl-3,5-pyridine dicarboxylate]",twice as active as the racemic mixture

# System: β-adrenergic
# Test: not given
# Settings: L-form versus D-enantiomer; cited from earlier work
row,SMILES,potency relative to the D-enantiomer [times]
1,CC(C)NC[C@H](O)COc1cccc2ccccc12,100
